This is an account of results in patent publication US12528814B2, “Bifunctional degraders of interleukin-1 receptor-associated kinases and therapeutic use thereof” (NURIX THERAPEUTICS, INC., priority 2020, dated 2026).

Structures are written as SMILES.

Experiment [1] concerns the target T1, IRAK4 (Homo sapiens (Human), UniProt Q9NWZ3). Kind of experiment: IRAK4 Degradation HiBiT Assay. Particulars: multiple runs, HiBiT-tagged Jurkat cells, 4 hrs; for Dmax: Jurkat, read-out: Cellular IRAK4 HiBiT: Dmax, Table 5; for DC50: read-out: Cellular IRAK4 HiBiT: DC50, Table 5.
Target sequence in this assay (Q9NWZ3 whole entry): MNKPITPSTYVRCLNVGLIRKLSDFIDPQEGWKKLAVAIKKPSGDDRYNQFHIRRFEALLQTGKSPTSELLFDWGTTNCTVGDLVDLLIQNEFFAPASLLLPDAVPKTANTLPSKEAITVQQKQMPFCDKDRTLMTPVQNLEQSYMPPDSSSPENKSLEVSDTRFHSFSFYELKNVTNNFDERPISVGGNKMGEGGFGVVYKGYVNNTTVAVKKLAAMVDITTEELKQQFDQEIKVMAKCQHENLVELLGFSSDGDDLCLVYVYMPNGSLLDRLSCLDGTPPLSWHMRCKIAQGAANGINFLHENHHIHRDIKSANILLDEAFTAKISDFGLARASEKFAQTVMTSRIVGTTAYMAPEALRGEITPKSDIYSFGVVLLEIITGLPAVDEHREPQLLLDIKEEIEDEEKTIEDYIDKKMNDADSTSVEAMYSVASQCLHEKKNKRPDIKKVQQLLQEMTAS
For experiment [2], the target named is T1, IRAK4. Kind of experiment: IRAK4 Biochemical HTRF Kinase Assay. Particulars: Table 5; multiple runs; read-out: IRAK4 HTRF biochemical: IC50. The method in brief:
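IC50 values derive from non-linear regression of sixteen concentrations in duplicate. Kinase reaction ran 90 min at ambient temperature after adding 5 μM STK-S1 substrate, 10 mM ATP and 10 mM MgCl2 (reaction-solution levels, pre-dilution to 10 μl); phospho-peptide detected by HTRF after 60 min.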
Target sequence in this assay (Q9NWZ3 whole entry, species assumed): as the sequence (Q9NWZ3 whole entry) above

In the case of `CNc1cc(-c2ccc3cc(C#N)cnn23)ncc1-c1nnc(C23CCC(NC(=O)CN4CCC5(CC4)CN(c4ccc6c(c4)C(=O)N(C4CCC(=O)NC4=O)C6=O)C5)(CC2)CC3)s1` (stereo not drawn) [Example 104, N-(4-(5-(6-(3-cyanopyrrolo[1,2-b]pyridazin-7-yl)-4-(methylamino)pyridin-3-yl)-1,3,4-thiadiazol-2-yl)bicyclo[2.2.2]octan-1-yl)-2-(2-(2-(2,6-dioxopiperidin-3-yl)-1,3-dioxoisoindolin-5-yl)-2,7-diazaspiro[3.5]nonan-7-yl)acetamide], in experiment [1], the Dmax is 77% and the DC50 came to 49.9 nM. The 50% inhibitory concentration (IC50) in experiment [2] was 1.5 nM.

With `CNc1cc(-c2ccc3cc(C#N)cnn23)ncc1-c1nnc(C23CCC(NC(=O)CN4CCN(c5ccc6c(c5)C(=O)N(C5CCC(=O)NC5=O)C6=O)CC4)(CC2)CC3)s1` (stereo not drawn) [Example 105, N-(4-(5-(6-(3-cyanopyrrolo[1,2-b]pyridazin-7-yl)-4-(methylamino)pyridin-3-yl)-1,3,4-thiadiazol-2-yl)bicyclo[2.2.2]octan-1-yl)-2-(4-(2-(2,6-dioxopiperidin-3-yl)-1,3-dioxoisoindolin-5-yl)piperazin-1-yl)acetamide], in experiment [1], the Dmax was 106% and the half-maximal degradation concentration (DC50) was found to be 39.8 nM. Further, in experiment [2], the IC50 was 1.2 nM.

On to `CNc1cc(-c2ccc3cc(C#N)cnn23)ncc1-c1nnc(C23CCC(NC(=O)CCCCCNc4cccc5c4C(=O)N(C4CCC(=O)NC4=O)C5=O)(CC2)CC3)s1` (stereo not drawn) [Example 106, N-(4-(5-(6-(3-cyanopyrrolo[1,2-b]pyridazin-7-yl)-4-(methylamino)pyridin-3-yl)-1,3,4-thiadiazol-2-yl)bicyclo[2.2.2]octan-1-yl)-6-((2-(2,6-dioxopiperidin-3-yl)-1,3-dioxoisoindolin-4-yl)amino)hexanamide], for which, in experiment [1], the Dmax was found to be 45% and the DC50 amounted to 43.8 nM. The half-inhibitory concentration (IC50) in experiment [2] amounted to 2 nM.

As for `CNc1cc(-c2ccc3cc(C#N)cnn23)ncc1-c1nnc(C23CCC(NC(=O)CCCCCCCNc4ccc5c(c4)C(=O)N(C4CCC(=O)NC4=O)C5=O)(CC2)CC3)s1` (stereo not drawn) [Example 107, N-(4-(5-(6-(3-cyanopyrrolo[1,2-b]pyridazin-7-yl)-4-(methylamino)pyridin-3-yl)-1,3,4-thiadiazol-2-yl)bicyclo[2.2.2]octan-1-yl)-8-((2-(2,6-dioxopiperidin-3-yl)-1,3-dioxoisoindolin-5-yl)amino)octanamide], in experiment [1], the Dmax stood at 44% and the half-maximal degradation concentration (DC50) was found to be 99.7 nM. Also, the IC50 in experiment [2] stood at 2.6 nM.

Turning to `CNc1cc(-c2ccc3cc(C#N)cnn23)ncc1-c1nnc(C23CCC(NC(=O)CCCCCNc4ccc5c(c4)C(=O)N(C4CCC(=O)NC4=O)C5=O)(CC2)CC3)s1` (stereo not drawn) [Example 108, N-(4-(5-(6-(3-cyanopyrrolo[1,2-b]pyridazin-7-yl)-4-(methylamino)pyridin-3-yl)-1,3,4-thiadiazol-2-yl)bicyclo[2.2.2]octan-1-yl)-6-((2-(2,6-dioxopiperidin-3-yl)-1,3-dioxoisoindolin-5-yl)amino)hexanamide], in experiment [1], the Dmax is 70% and the DC50 is 45.7 nM. Besides, the IC50 in experiment [2] was 1.4 nM.

`CNc1cc(-c2ccc3cc(C#N)cnn23)ncc1-c1nnc(C23CCC(NC(=O)[C@H]4C[C@@H](OCCNc5cccc6c5C(=O)N(C5CCC(=O)NC5=O)C6=O)C4)(CC2)CC3)s1` (stereo partly drawn) [Example 109, (1s,3s)-N-(4-(5-(6-(3-cyanopyrrolo[1,2-b]pyridazin-7-yl)-4-(methylamino)pyridin-3-yl)-1,3,4-thiadiazol-2-yl)bicyclo[2.2.2]octan-1-yl)-3-(2-((2-(2,6-dioxopiperidin-3-yl)-1,3-dioxoisoindolin-4-yl)amino)ethoxy)cyclobutane-1-carboxamide]: in experiment [1], the Dmax was 64% and the 50% degradation concentration (DC50) amounted to 21.6 nM. Moreover, the 50% inhibitory concentration (IC50) in experiment [2] was 1.4 nM.

With `CNc1cc(-c2ccc3cc(C#N)cnn23)ncc1-c1nnc(C23CCC(NC(=O)CCOCCOCCOCCNc4cccc5c4C(=O)N(C4CCC(=O)NC4=O)C5=O)(CC2)CC3)s1` (stereo not drawn) [Example 110, N-(4-(5-(6-(3-cyanopyrrolo[1,2-b]pyridazin-7-yl)-4-(methylamino)pyridin-3-yl)-1,3,4-thiadiazol-2-yl)bicyclo[2.2.2]octan-1-yl)-3-(2-(2-(2-((2-(2,6-dioxopiperidin-3-yl)-1,3-dioxoisoindolin-4-yl)amino)ethoxy)ethoxy)ethoxy)propanamide], in experiment [1], the Dmax came out at 93% and the DC50 came to 34.2 nM. For the same compound, the IC50 in experiment [2] stood at 0.7 nM.

Turning to `CNc1cc(-c2ccc3cc(C#N)cnn23)ncc1-c1nnc(C23CCC(NC(=O)CCOCCNc4cccc5c4C(=O)N(C4CCC(=O)NC4=O)C5=O)(CC2)CC3)s1` (stereo not drawn) [Example 111, N-(4-(5-(6-(3-cyanopyrrolo[1,2-b]pyridazin-7-yl)-4-(methylamino)pyridin-3-yl)-1,3,4-thiadiazol-2-yl)bicyclo[2.2.2]octan-1-yl)-3-(2-((2-(2,6-dioxopiperidin-3-yl)-1,3-dioxoisoindolin-4-yl)amino)ethoxy)propenamide], in experiment [1], the Dmax amounted to 59% and the 50% degradation concentration (DC50) was 15.8 nM. Also, the IC50 in experiment [2] was found to be 1.1 nM.

Regarding `CNc1cc(-c2ccc3cc(C#N)cnn23)ncc1-c1nnc([C@H]2CC[C@@H](NC(=O)CCCCCCCNc3ccc4c(c3)C(=O)N(C3CCC(=O)NC3=O)C4=O)CC2)s1` (stereo partly drawn) [Example 112, N-((1s,4s)-4-(5-(6-(3-cyanopyrrolo[1,2-b]pyridazin-7-yl)-4-(methylamino)pyridin-3-yl)-1,3,4-thiadiazol-2-yl)cyclohexyl)-8-((2-(2,6-dioxopiperidin-3-yl)-1,3-dioxoisoindolin-5-yl)amino)octanamide], in experiment [1], the Dmax turned out to be 57% and the DC50 is 171 nM. Further, in experiment [2], the IC50 worked out at 10.2 nM.

Consider `CNc1cc(-c2ccc3cc(C#N)cnn23)ncc1-c1nnc([C@H]2CC[C@@H](NC(=O)[C@H]3C[C@@H](OCCNc4cccc5c4C(=O)N(C4CCC(=O)NC4=O)C5=O)C3)CC2)s1` (stereo partly drawn) [Example 113, (1s,3S)—N-((1s,4S)-4-(5-(6-(3-cyanopyrrolo[1,2-b]pyridazin-7-yl)-4-(methylamino)pyridin-3-yl)-1,3,4-thiadiazol-2-yl)cyclohexyl)-3-(2-((2-(2,6-dioxopiperidin-3-yl)-1,3-dioxoisoindolin-4-yl)amino)ethoxy)cyclobutane-1-carboxamide], for which, in experiment [1], the Dmax is 76% and the DC50 came to 32 nM. In experiment [2], the IC50 worked out at 1.2 nM.

With `CNc1cc(-c2ccc3cc(C#N)cnn23)ncc1-c1nnc([C@H]2CC[C@@H](NC(=O)CCCCCNc3ccc4c(c3)C(=O)N(C3CCC(=O)NC3=O)C4=O)CC2)s1` (stereo partly drawn) [Example 114, N-((1s,4s)-4-(5-(6-(3-cyanopyrrolo[1,2-b]pyridazin-7-yl)-4-(methylamino)pyridin-3-yl)-1,3,4-thiadiazol-2-yl)cyclohexyl)-6-((2-(2,6-dioxopiperidin-3-yl)-1,3-dioxoisoindolin-5-yl)amino)hexanamide], in experiment [1], the Dmax was 82% and the DC50 stood at 72.6 nM. Besides, in experiment [2], the IC50 was 2.9 nM.
